Assay results as given in patent publication US20180284132A1, “KITS FOR STRATIFYING SCOLIOTIC SUBJECTS” (CHU SAINTE-JUSTINE, priority 2013, published 2018).
Each block holds one molecule with its values, some of them ahead of it.

Assays:
[1] = tested on: response to Gi stimulation; assay: Effect of Gi and Gs siRNA on response to Gi stimulation in osteoblasts (CDS); type: cell-based, human
Method: FIG. 12A-FIG. 12H show the differential effects of Gi and Gs siRNA on response to Gi stimulation in AIS functional groups. Osteoblasts from (FIG. 12A) control subjects, (FIG. 12B) FG3, (FIG. 12C) FG2; and (FIG. 12D) FG1 were transfected with Gi1, Gi2, Gi3 or Gs siRNA alone or in combination, or with scrambled siRNA, as indicated in Example 1—Materials and Methods. Efficiency of siRNA was verified with qPCR in each functional group (FIG. 12E to FIG. 12H) 48 hours after transfection, and response to Gi stimulation was measured by CDS and evaluated by challenging cells with Apelin-17, LPA or Somatostatin. Results from a single representative subject for each group are presented. Data were normalised to response in cells transfected with scrambled siRNA (% response shown on the y-axis and measured by CDS), and are expressed as mean±SE, of n=6 patients in each functional group. * P<0.05, **P<0.01, ***P<0.001, vs. control group.
(§1) The functionality of Gi, Gs and Gq proteins was evaluated by CDS assay in osteoblasts, and the functionality of Gi was also evaluated by CDS assay in myoblasts and PBMCs from the same individuals, using CellKey™ apparatus, as previously described (Akoume et al., 2010 and WO 2010/040234, 2010 to Moreau et al.).
All Gi1, Gi2, Gi3, Gs and scrambled siRNA were obtained from Ambion (Ambion USA). Osteoblasts from control subjects and AIS patients were transiently transfected in serum-free medium, using Lipofectamine RNAiMAX™ reagent (Invitrogen) according to the manufacturer's instructions and functional experiments were performed 48 h post transfection. The gene knockdown was evaluated by quantitative real-time PCR (qPCR).
Silencing of each gene reduced by 75-85% the expression of the corresponding mRNA in osteoblasts from control and the three AIS groups (FIGS. 12E-H). […] The response to each tested agonist was reduced by at least 75% by silencing Gi3 alone in FG2 osteoblasts (FIG. 12C), and by 90% by silencing Gi1 alone in FG3 osteoblasts ([…]) confirming that the residual response to Gi stimulation is mediated by Gi3 and Gi1 isoforms in FG2 and FG3 groups, respectively. In FG1 osteoblasts, response to each agonist was reduced by 50% following the depletion of all Gi isoforms by siRNA, and was not affected by the knockdown of individual Gi isoforms ([…]).

[2] = tested on: response to Gi stimulation; assay: Effect of serine/threonine kinase inhibitors on response to Gi stimulation in osteoblasts (CDS); type: cell-based, human; settings: inhibitor 5 μM, 1 hour before agonist
Method: FIG. 13A-FIG. 13B show the effect of various serine/threonine kinase inhibitors on response to Gi stimulation in osteoblasts from control and AIS functional groups. Cells were treated with Protein kinase A (PKA) inhibitor H89 (5 μM), Protein kinase C (PKC) inhibitor Gö6983 (5 μM), Ca^2+/calmodulin-dependent protein kinase (CaMK) (1,2,4) inhibitor STO-609 acetate (5 μM), Ca^2+/calmodulin-dependent protein kinase II (CaMK-2) inhibitor KN93 (5 μM), Casein kinase 1 (CK1) inhibitor D4476 (5 μM) or vehicle for 1 hour prior to stimulation with (FIG. 13A) LPA (10^−6 M) or (FIG. 13B) Somatostatin (10^−6 M). Response to Gi stimulation was measured by CDS. Data were normalised to response in osteoblasts treated with vehicle (% response in presence of vehicle shown on the y-axis and measured by CDS), and are expressed as mean±SE, of n=12 patients in each functional group. * P<0.05, **P<0.01, ***P<0.001, vs control group.
as §1
In order to identify putative serine/threonine kinases phosphorylating Gi isoforms in AIS, control and AIS osteoblasts were treated with a panel of serine/threonine kinase inhibitors prior to their stimulation with two distinct agonists (LPA and somatostatin). Of note, Gi stimulation induced via LPA or somatostatin receptor activation by their agonists in control osteoblasts was not affected by any kinase inhibitor (FIG. 13A-FIG. 13B). […] Cellular response in FG3 osteoblasts was not improved by inhibition of neither of PKC nor CaMK.

melatonin receptor [3] = assay: Cellular response of osteoblasts to melatonin receptor agonists, cellular dielectric spectroscopy (CDS); type: cell-based, human; settings: for order of agonist potency: response at maximum concentration (10 μM), osteoblasts of control and AIS groups
Method: (§2) Data were normalised to maximal response (% maximal response) in cells from control subjects. […] The impedance represented in y-axis as dZiec, indicates the resistance (ohms) of the cells toward the electric current applied by the Cellkey™ apparatus and represents the integrated cellular response. […] Cellular responses shown on the y-axis in (FIG. 3A) to (FIG. 3E) were measured by CDS.
Osteoblasts were isolated from bone specimens obtained intraoperatively from vertebras (varying from T3 to L4 according to the surgical procedure performed) and from other anatomical sites (tibia or femur) in AIS patients and trauma control cases, respectively as previously described (Moreau et al., 2004).
as §1
The response produced with their maximum concentration (10 μM) in osteoblasts from control subjects and AIS patients of each functional group was compared.

Gi proteins = assay: Inhibition by GPAnt-2 or pertussis toxin of osteoblast response to Gi-coupled receptor agonists (CDS); type: cell-based, human; settings: for effect on cellular response to melatonin: 16 hours
Method: as §2, §1

melatonin receptor [4] = settings: normal osteoblasts; CDS (Akoume et al., 2010); cited from earlier work
beta-adrenergic receptor = assay: Functional status of Gs protein in osteoblasts, isoproterenol challenge (CDS); type: cell-based, human
Method: as §1

- effect on response to Gi stimulation via LPA or somatostatin ([2]; FG1 osteoblasts): unaffected
- effect on response to Gi stimulation via LPA or somatostatin ([2]; FG2 osteoblasts): increased the signalling response
- effect on response to Gi stimulation via LPA or somatostatin ([2]; FG3 osteoblasts): not improved
Molecule: COc1ccc(S(=O)(=O)N(CCO)c2ccccc2CN(C)C/C=C/c2ccc(Cl)cc2)cc1 [KN93]

- effect on response to Gi stimulation via LPA or somatostatin ([2]; FG1 osteoblasts): increased the signalling response
- effect on response to Gi stimulation via LPA or somatostatin ([2]; FG2 osteoblasts): increased the signalling response
- effect on response to Gi stimulation via LPA or somatostatin ([2]; FG3 osteoblasts): increased the signalling response
Molecule: O=S(=O)(NCCNC/C=C/c1ccc(Br)cc1)c1cccc2cnccc12 [H89]

- effect on response to Gi stimulation via LPA or somatostatin ([2]; FG1 osteoblasts): increased response
- effect on response to Gi stimulation via LPA or somatostatin ([2]; FG3 osteoblasts): increased response
Molecule: NC(=O)c1ccc(-c2nc(-c3ccc4c(c3)OCCO4)c(-c3ccccn3)[nH]2)cc1 [D4476]

Further lines, the molecule ahead of its results:

Molecule: Gi2 siRNA: siRNA from Ambion, GAGGACCUGAAUAAGCGCAAAGACA (SEQ ID NO: 98)
- reduction of response to each tested agonist ([1]; control group osteoblasts): not significantly affected

Molecule: COc1ccc2[nH]c(-c3ccccc3)c(CCNC(C)=O)c2c1 [phenylmelatonin]
- order of agonist potency (melatonin receptor [3]): phenylmelatonin>iodomelatonin>melatonin

Molecule: pertussis toxin [PTX]
- effect on cellular response to melatonin (Gi proteins; FG1 osteoblasts, maximal concentration): enhanced the response to melatonin
- effect on cellular response to melatonin (Gi proteins; FG2 and FG3 osteoblasts, increasing concentration): reduced the cellular response to melatonin
- effect on response to mastoparan (Gi proteins; high concentrations, all AIS and control groups): almost abolished
- inhibition curve patterns (Gi proteins; response to any of the five synthetic agonists, osteoblasts (GPAnt-2 4 h, PTX 16 h)): curve patterns similar to those obtained with melatonin

Molecule: Gs siRNA: siRNA from Ambion, ACAACAUGGUCAUCCGGGAGGACAA (SEQ ID NO: 100)
- reduction of response to each tested agonist ([1]; FG1 osteoblasts): 50%
- reduction of response to each tested agonist ([1]; FG2 osteoblasts): devoid of effect
- reduction of response to each tested agonist ([1]; FG3 osteoblasts): devoid of effect
- reduction of response to each tested agonist ([1]; control group osteoblasts): devoid of effect

Molecule: COc1ccc2[nH]cc(CCNC(C)=O)c2c1 [melatonin]
- concentration at which the response reaches a plateau (melatonin receptor [3]; osteoblasts, all control and AIS groups): 1 µM
- cellular response to melatonin (melatonin receptor [3]; osteoblasts, all control and AIS groups, CDS): concentration-dependent increase of response
- order of magnitude of the maximum response from highest to lowest (melatonin receptor [3]; osteoblasts, control vs AIS functional groups): control group, FG3, FG2 and FG1
- order of agonist potency (melatonin receptor [3]): phenylmelatonin>iodomelatonin>melatonin
- G protein dependence of cellular response to melatonin receptor stimulation (melatonin receptor [4]): mainly Gi-dependent in normal osteoblasts

Molecule: CC(C)NCC(O)c1ccc(O)c(O)c1 (stereo not shown) [isoproterenol]
- cellular response, AIS osteoblasts vs control osteoblasts (beta-adrenergic receptor): significantly enhanced

Molecule: COc1ccc2c(c1)c(C1=C(c3c[nH]c4ccccc34)C(=O)NC1=O)cn2CCCN(C)C [Gö8963, Gö6983]
- effect on response to Gi stimulation via LPA or somatostatin ([2]; FG1 osteoblasts): significantly increased
- effect on response to Gi stimulation via LPA or somatostatin ([2]; FG2 osteoblasts): devoid of significant effect
- effect on response to Gi stimulation via LPA or somatostatin ([2]; FG3 osteoblasts): not improved

Molecule: COc1ccc2[nH]c(I)c(CCNC(C)=O)c2c1 [iodomelatonin]
- order of agonist potency (melatonin receptor [3]): phenylmelatonin>iodomelatonin>melatonin

Molecule: STO-609 acetate
- effect on response to Gi stimulation via LPA or somatostatin ([2]; FG1 osteoblasts): significantly increased
- effect on response to Gi stimulation via LPA or somatostatin ([2]; FG2 osteoblasts): increased the signalling response
- effect on response to Gi stimulation via LPA or somatostatin ([2]; FG3 osteoblasts): not improved
